What was measured:
[1] = molecular target: T1, EcR99A DXPS (Escherichia coli, UniProt P77488, R99A); assay: Time-dependent inhibition, reaction progress curves on EcR99A; assay type: biochemical; conditions: 8 at 700 nM or 200 μM
T1 construct: made in house
Method: Figure S8. Replicates of reaction progress curves for DXP formation on EcR99A in the presence or absence of 8. Reactions were initiated by simultaneous addition of substrates (780 µM pyruvate and 2400 µΜ D-GAP) in the presence or absence of 8 (700 nM or 200 µM) at 25 °C. Reaction progress was measured using the DXPS-IspC coupled assay. Experiments were performed in […]
Figure S9. Representative CD traces illustrating behavior of the CD signal corresponding to PLThDP formed from 8 on WT and EcDXPS variants. A) CD traces showing lack of a significant shift in CD signal following addition of pyruvate (1 mM, red trace) to E-PLThDP formed from 8 (blue trace) on WT B) Observed shift toward a LThDP-like CD signal following addition EcDXPS. of pyruvate to E-PLThDP formed from 8 on EcR99A DXPS. C) Observed shift toward a LThDP-like CD signal following addition of pyruvate to E-PLThDP formed from 8 on EcR478A DXPS. […]

[2] = molecular target: T2, EcDXPS (Escherichia coli, UniProt P77488); assay: DXPS quaternary structure by native PAGE and analytical gel filtration
T2 construct: made in house
T2 sequence (P77488 whole entry): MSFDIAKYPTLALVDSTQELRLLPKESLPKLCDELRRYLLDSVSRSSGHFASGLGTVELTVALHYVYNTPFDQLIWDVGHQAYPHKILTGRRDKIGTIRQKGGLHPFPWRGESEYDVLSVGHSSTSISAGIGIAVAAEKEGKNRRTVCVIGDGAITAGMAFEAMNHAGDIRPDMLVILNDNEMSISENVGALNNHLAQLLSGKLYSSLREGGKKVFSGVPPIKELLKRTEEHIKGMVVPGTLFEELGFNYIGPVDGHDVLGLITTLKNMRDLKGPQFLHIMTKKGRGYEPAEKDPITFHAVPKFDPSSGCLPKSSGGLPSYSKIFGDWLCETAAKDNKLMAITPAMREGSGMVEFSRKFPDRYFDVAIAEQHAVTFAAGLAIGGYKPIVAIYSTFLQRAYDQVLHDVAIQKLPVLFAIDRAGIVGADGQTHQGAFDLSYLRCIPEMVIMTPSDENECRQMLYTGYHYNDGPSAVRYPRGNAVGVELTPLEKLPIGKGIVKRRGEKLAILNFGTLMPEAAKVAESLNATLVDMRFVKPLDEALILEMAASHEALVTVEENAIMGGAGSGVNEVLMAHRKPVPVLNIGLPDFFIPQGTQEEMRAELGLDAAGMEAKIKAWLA
Method: EcDXPS (20 μM) in buffer (2 mM MgCl2, 5 mM NaCl, 1 mM ThDP, 100 mM HEPES pH 8) was preincubated with 8 ([…]) or no inhibitor for 30 min at 25 °C. Samples were then diluted 2-fold with 2× loading dye (100 mM Tris HCl pH 8, 20% glycerol, 200 mM dithiothreitol (DTT), 0.01% bromophenol blue). Samples (15 μL) were then loaded on a 7.5% PAGE gel. Gel electrophoresis was conducted at 4 °C for 30 min at 120 V, followed by 3 h at 150 V. Protein bands were stained with Protostain Blue. Experiments were performed in triplicate.
Analytical gel filtration was performed on an AKTA-GO FPLC system held at 4 °C fitted with a Cytiva Superdex 200 Increase 5/150 GL column. A 200 μL solution containing 29 μM EcDXPS in 25 mM HEPES, pH 8, 100 mM NaCl, 1 mM MgCl2, 1% glycerol, 10 μM ThDP, and 29 μM 8 or no inhibitor was centrifuged at 13,000 rpm for 10 min to remove particulates. The resulting supernatant was loaded into a 10 μL loop attached to the FPLC via gastight syringes. […] DXPS was analyzed by isocratic elution from the column at a flow of 0.15 mL/min with 1.5 column volumes (4.5 mL). The dimer/tetramer ratio was calculated from the peak area (mL mAu) of the dimer (1.7 mL retention) peak divided by the peak area (mL mAu) of the tetramer (1.4 mL retention) peak. […]

T1 sequence (P77488 whole entry R99A): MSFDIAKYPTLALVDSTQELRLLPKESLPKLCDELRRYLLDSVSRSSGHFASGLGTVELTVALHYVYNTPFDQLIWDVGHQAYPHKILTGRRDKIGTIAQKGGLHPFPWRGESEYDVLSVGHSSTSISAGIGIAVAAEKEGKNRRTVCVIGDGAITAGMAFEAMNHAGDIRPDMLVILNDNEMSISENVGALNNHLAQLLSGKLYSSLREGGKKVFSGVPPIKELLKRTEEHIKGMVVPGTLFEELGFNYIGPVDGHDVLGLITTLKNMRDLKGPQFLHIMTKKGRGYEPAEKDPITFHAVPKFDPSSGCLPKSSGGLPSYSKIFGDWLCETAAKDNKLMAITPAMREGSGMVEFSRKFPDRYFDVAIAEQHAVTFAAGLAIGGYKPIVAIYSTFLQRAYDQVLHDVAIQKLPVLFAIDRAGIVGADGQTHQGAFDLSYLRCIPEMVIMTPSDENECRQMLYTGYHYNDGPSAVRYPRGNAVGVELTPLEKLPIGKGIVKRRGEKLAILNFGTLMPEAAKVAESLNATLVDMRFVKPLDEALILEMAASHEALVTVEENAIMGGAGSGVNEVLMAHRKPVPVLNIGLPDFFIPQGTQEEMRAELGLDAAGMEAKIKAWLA

Question: For `CC(=O)P(=O)(O)OCCc1cn(C(Cc2ccccc2)(Cc2ccccc2)C(=O)O)nn1` [Compound 8], which “time dependence of inhibition (progress curve for DXP formation)” value [1] is on record?
Answer: loss of time-dependent behavior

Question: What about the “effect on dimer/tetramer ratio (analytical gel filtration)” value ([2]; 29 μM EcDXPS, 29 μM 8) of the same molecule?
Answer: small but statistically significant decrease in the dimer/tetramer ratio

Question: And the “effect on EcDXPS oligomeric state (native PAGE)” value ([2]; EcDXPS 20 μM, incubation with 8)?
Answer: induce the formation of higher-order enzyme oligomers

— publication PMC11019550, “Potent Inhibition of E. coli DXP Synthase by a gem-Diaryl Bisubstrate Analog” (ACS Infectious Diseases, 2024)
